Measurements from patent US12565490B2, “Inhibitors of Receptor Interacting Protein Kinase I for the treatment of disease” (Board of Regents, The University of Texas System, priority 2020, dated 2026).

The compounds below were run on human monocytic cell line U937 (assay: Human U937 cellular necroptosis assay). Details: U-937; U937 cells stimulated with 25 ng/mL human TNFalpha and 25 μM z-VAD-FMK; 22 hr; viability by Cell Titer-Glo 2.0; read-out: hU937 IC50.
Format: cell-based
Experimental: Human U937 Cellular Necroptosis Assay
The human monocytic cell line U937 (CRL-1593.2) may be purchased from ATCC. The cells are routinely maintained in RPMI-1640 Medium (Gibco, Catalog #11875-093) supplemented with 10% heat inactivated fetal bovine serum (Gibco, Catalog #16140-071), 100 units/mL penicillin and 100 μg/mL streptomycin (Gibco, Catalog #15140-122), in a humidified incubator (37° C., 5% CO2). For the assay, cells are resuspended in RPMI-1640 phenol red free Media (Gibco, Catalog #11835-030) supplemented with 10% fetal bovine serum (Sigma, Catalog #F2442), 100 units/mL penicillin and 100 ug/mL streptomycin. Cells are stimulated with 25 ng/mL human TNFalpha (Cell Sciences, Catalog #CSI15659B) and 25 μM z-VAD-FMK (R&D Systems, Catalog #FMK001) followed by seeding 5000 cells per well in a volume of 40 μL to a white, CulturPlate-384 (Perkin Elmer, Catalog #6007680). Stock solutions of the test compounds are prepared in 100% DMSO (Sigma, Catalog #D2650) and serially diluted 1:3 using 100% DMSO. Compounds are additionally diluted 1:40 in assay medium, and 10 μL/well was transferred to the plate. Following the compound addition, the plate is incubated at 37° C. and 5% CO2 for 22 hr. After 22 hr, viability is assessed with the addition of 20 μL of Cell Titer-Glo 2.0 (Promega, Catalog #G9243). The tissue culture plate is shaken on an orbital shaker at 300 RPM for 15 minutes at room temperature in the dark. Luminescence is measured using a PerkinElmer Envision™ plate reader. IC50 values are calculated using a four-parameter logistic curve fit using Genedata Screener software. Compounds disclosed herein are expected to have activity in this assay.

Compound | IC50 [nM]
CN1C(=O)[C@@H](NC(=O)c2ncc(Cl)c(C3COCCO3)n2)COc2cc(Cl)cnc21 (single isomer, unassigned) [Example 163b] | 87.9
COc1cc2c(cn1)N(C)C(=O)[C@@H](NC(=O)c1ncc(C)c(-c3ccccc3)n1)CC2 (stereo in doubt) [Example 11, N-(7-methoxy-1-methyl-2-oxo-2,3,4,5-tetrahydro-1H-pyrido[3,4-b]azepin-3-yl)-5-methyl-4-phenylpyrimidine-2-carboxamide] | 459
Cc1ccc(-c2nc(C(=O)N[C@H]3COc4cc(C#N)ccc4N(C)C3=O)ncc2C)cc1F [Example 1, (S)—N-(8-cyano-5-methyl-4-oxo-2,3,4,5-tetrahydrobenzo[b][1,4]oxazepin-3-yl)-4-(3-fluoro-4-methylphenyl)-5-methylpyrimidine-2-carboxamide] | 12.4
O=C(NC1CCc2ccccc2NC1=O)c1ncc(C2CC2)c(-c2ccccc2)n1 (stereo not drawn) [Example 2, 5-cyclopropyl-N-(2-oxo-2,3,4,5-tetrahydro-1H-benzo[b]azepin-3-yl)-4-phenylpyrimidine-2-carboxamide] | 509
Cc1cnc(C(=O)NC2CCc3ccccc3NC2=O)nc1-c1ccccc1 (stereo not drawn) [Example 3, 5-methyl-N-(2-oxo-2,3,4,5-tetrahydro-1H-benzo[b]azepin-3-yl)-4-phenylpyrimidine-2-carboxamide] | 18.5
O=C(NC1CCc2ccccc2NC1=O)c1nccc(-c2ccccc2)n1 (stereo not drawn) [Example 4, N-(2-oxo-2,3,4,5-tetrahydro-1H-benzo[b]azepin-3-yl)-4-phenylpyrimidine-2-carboxamide] | 2160
Cc1cnc(C(=O)N[C@H]2COc3cc(C#N)ccc3N(C)C2=O)nc1-c1ccccc1 [Example 5, (S)-N-(8-cyano-5-methyl-4-oxo-2,3,4,5-tetrahydro-benzo[b][1,4]oxazepin-3-yl)-5-methyl-4-phenylpyrimidine-2-carboxamide] | 15.1
Cc1cnc(C(=O)N[C@H]2COc3cccnc3N(C)C2=O)nc1-c1ccccc1 [Example 6, (S)-5-methyl-N-(5-methyl-4-oxo-2,3,4,5-tetrahydropyrido[3,2-b][1,4]oxazepin-3-yl)-4-phenylpyrimidine-2-carboxamide] | 12.5
Cc1cnc(C(=O)NC2CCc3cc(F)cc(F)c3NC2=O)nc1-c1ccccc1 (stereo not drawn) [Example 7, N-(7,9-difluoro-2-oxo-2,3,4,5-tetrahydro-1H-benzo[b]azepin-3-yl)-5-methyl-4-phenylpyrimidine-2-carboxamide] | 22.2
O=C(NC1CCc2ccccc2NC1=O)c1nc(-c2ccccc2)c(Cl)cc1Cl (stereo not drawn) [Example 8, 3,5-dichloro-N-(2-oxo-2,3,4,5-tetrahydro-1H-benzo[b]azepin-3-yl)-6-phenylpicolinamide] | 354
Cc1cnc(C(=O)N[C@H]2CCc3ccccc3NC2=O)nc1-c1ccc(F)cc1 [Example 9, (S)-4-(4-fluorophenyl)-5-methyl-N-(2-oxo-2,3,4,5-tetrahydro-1H-benzo[b]azepin-3-yl)pyrimidine-2-carboxamide] | 10.2
Cc1cnc(C(=O)N[C@H]2CCc3ccccc3NC2=O)nc1-c1ccc(F)c(F)c1 [Example 10, (S)-4-(3,4-difluorophenyl)-5-methyl-N-(2-oxo-2,3,4,5-tetrahydro-1H-benzo[b]azepin-3-yl)pyrimidine-2-carboxamide] | 15.4
Cc1cnc(C(=O)N[C@H]2CCc3ccccc3NC2=O)nc1-c1cccc(F)c1 [Example 12, (S)-4-(3-fluorophenyl)-5-methyl-N-(2-oxo-2,3,4,5-tetrahydro-1H-benzo[b]azepin-3-yl)pyrimidine-2-carboxamide] | 14.6
Cc1ccc(-c2nc(C(=O)N[C@H]3CCc4ccccc4NC3=O)ncc2C)cc1 [Example 13, (S)-5-methyl-N-(2-oxo-2,3,4,5-tetrahydro-1H-benzo[b]azepin-3-yl)-4-(p-tolyl)pyrimidine-2-carboxamide] | 27.6
Cc1cnc(C(=O)N[C@H]2COc3cc(C#N)ccc3N(C)C2=O)nc1N1CCCCC1 [Example 14, (S)-N-(8-cyano-5-methyl-4-oxo-2,3,4,5-tetrahydro-benzo[b][1,4]oxazepin-3-yl)-5-methyl-4-(piperidin-1-yl)-pyrimidine-2-carboxamide] | 119
Cc1cnc(C(=O)NC2CCn3nc(C(F)(F)F)cc3N(C)C2=O)nc1-c1ccccc1 (stereo not drawn) [Example 15, 5-methyl-N-(4-methyl-5-oxo-2-(trifluoromethyl)-5,6,7,8-tetrahydro-4H-pyrazolo[1,5-a][1,3]diazepin-6-yl)-4-phenyl-pyrimidine-2-carboxamide] | 498
Cc1cnc(C(=O)N[C@@H]2C(=O)N(C)c3ncccc3O[C@@H]2C)nc1-c1ccccc1 [Example 16, N-((2R,3S)-2,5-dimethyl-4-oxo-2,3,4,5-tetrahydropyrido[3,2-b][1,4]oxazepin-3-yl)-5-methyl-4-phenylpyrimidine-2-carboxamide] | 36.1
Cc1cnc(C(=O)N[C@H]2COc3cc(C#N)ccc3N(C)C2=O)nc1-c1ccc(F)c(F)c1 [Example 17, (S)-N-(8-cyano-5-methyl-4-oxo-2,3,4,5-tetrahydro-benzo[b][1,4]oxazepin-3-yl)-4-(3,4-difluorophenyl)-5-methyl-pyrimidine-2-carboxamide] | 40.8
Cc1cnc(C(=O)Nc2cccc(Cl)c2F)nc1-c1ccccc1 [Example 18, N-(3-chloro-2-fluorophenyl)-5-methyl-4-phenylpyrimidine-2-carboxamide] | 1890
Cc1cnc(C(=O)N[C@H]2COc3cc(C#N)ccc3N(C)C2=O)nc1N1CCC(F)(F)CC1 [Example 19, (S)-N-(8-cyano-5-methyl-4-oxo-2,3,4,5-tetrahydro-benzo[b][1,4]oxazepin-3-yl)-4-(4,4-difluoropiperidin-1-yl)-5-methylpyrimidine-2-carboxamide] | 748
Cc1cnc(C(=O)N[C@H]2COc3cc(C#N)ccc3N(C)C2=O)nc1N1CCCC1 [Example 20, (S)-N-(8-cyano-5-methyl-4-oxo-2,3,4,5-tetrahydro-benzo[b][1,4]oxazepin-3-yl)-5-methyl-4-(pyrrolidin-1-yl)-pyrimidine-2-carboxamide] | 482
Cc1cnc(C(=O)N[C@H]2COc3cccnc3N(C)C2=O)nc1-c1ccc(F)c(F)c1 [Example 21, (S)-4-(3,4-difluorophenyl)-5-methyl-N-(5-methyl-4-oxo-2,3,4,5-tetrahydropyrido[3,2-b][1,4]oxazepin-3-yl)pyrimidine-2-carboxamide] | 14.8
Cc1cnc(C(=O)N[C@H]2COc3ccc(Br)cc3N(C)C2=O)nc1-c1ccccc1 [Example 22, (S)-N-(7-bromo-5-methyl-4-oxo-2,3,4,5-tetrahydro-benzo[b][1,4]oxazepin-3-yl)-5-methyl-4-phenylpyrimidine-2-carboxamide] | 12.1
Cc1cnc(C(=O)N[C@H]2COc3cc(C#N)ccc3N(C)C2=O)nc1N1CCC(F)(F)C1 [Example 23, (S)-N-(8-cyano-5-methyl-4-oxo-2,3,4,5-tetrahydro-benzo[b][1,4]oxazepin-3-yl)-4-(3,3-difluoropyrrolidin-1-yl)-5-methylpyrimidine-2-carboxamide] | 830
CN1C(=O)[C@@H](NC(=O)c2ncc(Cl)c(-c3ccccc3)n2)COc2cc(C#N)ccc21 [Example 24, (S)-5-chloro-N-(8-cyano-5-methyl-4-oxo-2,3,4,5-tetrahydro-benzo[b][1,4]oxazepin-3-yl)-4-phenylpyrimidine-2-carboxamide] | 19.2
Cc1ccc(C(=O)Nc2cccc(Cl)c2F)nc1Br [Example 25, 6-bromo-N-(3-chloro-2-fluorophenyl)-5-methyl-picolinamide] | ≥ 10000
Cc1cnc(C(=O)N[C@H]2COc3ccc(N4CC5(CCOCC5)C4)cc3N(C)C2=O)nc1-c1ccccc1 [Example 26, (S)-5-methyl-N-(5-methyl-4-oxo-7-(7-oxa-2-azaspiro[3.5]nonan-2-yl)-2,3,4,5-tetrahydrobenzo[b]-[1,4]oxazepin-3-yl)-4-phenyl-pyrimidine-2-carboxamide] | 14.6
CN1C(=O)[C@@H](NC(=O)c2ncc(Cl)c(-c3ccccc3)n2)COc2cccnc21 [Example 27, (S)-5-chloro-N-(5-methyl-4-oxo-2,3,4,5-tetrahydropyrido[3,2-b][1,4]oxazepin-3-yl)-4-phenylpyrimidine-2-carboxamide] | 26.7
Cc1cnc(C(=O)N[C@H]2COc3cc(Br)cnc3N(C)C2=O)nc1-c1ccccc1 [Example 29, (S)-N-(8-bromo-5-methyl-4-oxo-2,3,4,5-tetrahydropyrido[3,2-b][1,4]oxazepin-3-yl)-5-methyl-4-phenylpyrimidine-2-carboxamide] | 11.7
Cc1ccc(-c2nc(C(=O)N[C@H]3COc4cc(C#N)ccc4N(C)C3=O)ncc2C)c(F)c1 [Example 30, (S)-N-(8-cyano-5-methyl-4-oxo-2,3,4,5-tetrahydro-benzo[b][1,4]oxazepin-3-yl)-4-(2-fluoro-4-methylphenyl)-5-methylpyrimidine-2-carboxamide] | 32.3
